Laboratory results published in paper PMC7293010, “DXO/Rai1 enzymes remove 5′-end FAD and dephospho-CoA caps on RNAs” (Nucleic Acids Research, 2020).

What was measured:
[1] = target: T1, SpRai1 (Schizosaccharomyces pombe, UniProt O13836); test: X-ray crystal structure, crystal soaked […] h in […] ligand; assay type: binding; settings: 1.9 Å; two magnesium ions observed; active site
T1 construct: gene din1; full-length, pET28a (for crystallization), E. coli BL21 (DE3) Rosetta, Ni-NTA and gel filtration
T1 sequence (O13836 1-352): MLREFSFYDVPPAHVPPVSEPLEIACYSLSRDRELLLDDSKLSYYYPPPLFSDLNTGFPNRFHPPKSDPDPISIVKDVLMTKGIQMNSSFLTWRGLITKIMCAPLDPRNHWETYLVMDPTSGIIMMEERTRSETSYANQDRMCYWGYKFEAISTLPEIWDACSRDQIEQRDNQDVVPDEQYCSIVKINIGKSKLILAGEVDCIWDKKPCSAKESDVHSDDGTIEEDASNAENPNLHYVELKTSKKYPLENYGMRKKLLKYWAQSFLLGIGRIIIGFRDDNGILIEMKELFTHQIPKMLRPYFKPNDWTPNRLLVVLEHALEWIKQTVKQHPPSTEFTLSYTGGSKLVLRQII

[2] = target: T2, mDXO (Mus musculus, UniProt O70348, E192S/E234Q/E253Q); test: X-ray crystal structure, crystal soaked in […] CaCl2 for […] h, then in […] ligand for […] h; assay type: binding; settings: 1.6 Å; active site; pH 6.8, 20°C
T2 construct: gene Dxo; full-length, His tag, pET28a, E. coli BL21 (DE3) Rosetta, Ni-NTA and gel filtration; residues 1-26 with His tag and 385-397 not seen in density
T2 sequence (O70348 1-397 E192S/E234Q/E253Q): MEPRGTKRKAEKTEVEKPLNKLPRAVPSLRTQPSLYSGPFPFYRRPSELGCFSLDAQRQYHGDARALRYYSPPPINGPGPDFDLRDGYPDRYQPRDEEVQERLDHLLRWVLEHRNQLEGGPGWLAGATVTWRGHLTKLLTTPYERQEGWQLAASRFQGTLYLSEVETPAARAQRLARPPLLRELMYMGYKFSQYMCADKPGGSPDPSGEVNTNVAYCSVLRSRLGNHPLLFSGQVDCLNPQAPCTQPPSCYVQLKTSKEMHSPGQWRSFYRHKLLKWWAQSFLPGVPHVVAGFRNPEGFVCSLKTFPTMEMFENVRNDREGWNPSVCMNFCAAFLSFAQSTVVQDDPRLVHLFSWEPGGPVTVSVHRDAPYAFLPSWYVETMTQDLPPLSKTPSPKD

SMILES	X-ray crystal structure, crystal soaked 1 h in 10 mM ligand [1]	X-ray crystal structure, crystal soaked in 20 mM CaCl2 for 1 h, then in 10 mM li [2]
Cc1cc2nc3c(=O)[nH]c(=O)nc-3n(C[C@H](O)[C@H](O)[C@H](O)COP(=O)(O)OP(=O)(O)OC[C@H]3O[C@@H](n4cnc5c(N)ncnc54)[C@H](O)[C@@H]3OP(=O)(O)O)c2cc1C [3′-FADP]	good-quality electron density for FADP in complex with wild-type SpRai1	
CC(C)(COP(=O)(O)OP(=O)(O)OC[C@H]1O[C@@H](n2cnc3c(N)ncnc32)[C@H](O)[C@@H]1OP(=O)(O)O)[C@@H](O)C(=O)NCCC(=O)NCCS [CoA]		crystal structure of the E192S/E234Q/E253Q mutant of mDXO in complex with CoA
